Patent publication US20110039763A1, “TARGETED ANTIMICROBIAL MOIETIES” (C3 JIAN, INC., priority 2009, published 2011)
“Also recorded” adds a separate entry of the source.

Tested on: microorganisms
Experiment: Targeting peptide binding to target microorganisms (Tables 3, 10, 12)
Settings: peptide binding in aqueous buffers that varied with peptide solubility; preferably 1x PBS
From the text: In certain embodiments, the targeting moiety comprises one or more targeting peptides that bind particular bacteria, fungi, and/or yeasts, and/or algae, and/or viruses and/or that bind particular groups of bacteria, and/or groups of fungi, and/or groups of yeasts, and/or groups of algae.
In certain embodiments the targeting peptides include peptides comprising or consisting of one or more of the amino acid sequences shown in Table 3 (SEQ ID NOs:13-1566). In various embodiments the peptides include peptides comprising or consisting of the retro, inverso, retro-inverso, and/or beta form of one or more of the amino acid sequences shown in Table 3. Also contemplated are circular permutations of these sequences as well as peptides comprising or consisting of the retro, inverso, retro-inverso, and/or beta form of such circular permutations.
In certain embodiments the targeting peptide can comprise one or more domains capable of binding, specifically binding, or preferentially binding to a microorganism, e.g., a target microbial organism (see, e.g., Table 3). In certain embodiment, the targeting peptide be identified via screening peptide libraries. For example, a phage display peptide library can be screened against a target microbial organism or a desired antigen or epitope thereof. Any peptide identified through such screening can be used as a targeting peptide for the target microbial organism.

Substance | Target(s) (microorganism bound by the targeting peptide)
1T-4 (LDAYGELVGGN; Peptide with targeting and/or antimicrobial activity) | S. gordonii; also recorded: S. sanguinis; also recorded: S. oralis; also recorded: V. atypica; also recorded: L. casei; also recorded: S. mutans
1T-6 (KFINGVLSQFVLERK; Peptide with targeting and/or antimicrobial activity) | S. mutans
1T-7 (SQRIIEPVKSPQPYPGFSVS; Peptide with targeting and/or antimicrobial activity) | M. xanthus
1T-8 (FSVAACGEQRAVTFVLLIEDLI; Peptide with targeting and/or antimicrobial activity) | M. xanthus
1T-9 (WAWAESPRCVSTRSNIHALAFRVEVAALT; Peptide with targeting and/or antimicrobial activity) | M. xanthus
1T-10 (SPAGLPGDGDEA; Peptide with targeting and/or antimicrobial activity) | M. xanthus
1T-11 (RISE; Peptide with targeting and/or antimicrobial activity) | S. mutans; also recorded: S. epidermidis; also recorded: P. aeruginosa
1T-12 (FGNIFKGLKDVIETIVKWTAAK; Peptide with targeting and/or antimicrobial activity) | C. xerosis; also recorded: C. striatum; also recorded: S. epidermidis; also recorded: S. mutans
1T-13 (FRSPCINNNSLQPPGVYPAR; Peptide with targeting and/or antimicrobial activity) | S. aureus; also recorded: S. epidermidis; also recorded: P. aeruginosa
1T-14 (ALAGLAGLISGK; Peptide with targeting and/or antimicrobial activity) | S. mutans; also recorded: S. aureus; also recorded: S. epidermidis; also recorded: C. xerosis
1T-15 (DVILRVEAQ; Peptide with targeting and/or antimicrobial activity) | S. mutans
1T-16 (IDMR; Peptide with targeting and/or antimicrobial activity) | P. aeruginosa
1T-17 (NNAIVYIS; Peptide with targeting and/or antimicrobial activity) | S. mutans
1T-18 (YSKTLHFAD; Peptide with targeting and/or antimicrobial activity) | S. aureus; also recorded: S. epidermidis; also recorded: C. striatum; also recorded: P. aeruginosa
1T-19 (PGAFRNPQMPRG; Peptide with targeting and/or antimicrobial activity) | S. aureus; also recorded: S. epidermidis; also recorded: P. aeruginosa
1T-20 (PALVDLSNKEAVWAVLDDHS; Peptide with targeting and/or antimicrobial activity) | S. mutans; also recorded: P. aeruginosa
1T-21 (YVEEAVRAALKKEARISTEDTPVNLPSFDC; Peptide with targeting and/or antimicrobial activity) | S. mutans; also recorded: P. aeruginosa
1T-22 (VPLDDGTRRPEVARNRDKDRED; Peptide with targeting and/or antimicrobial activity) | S. epidermidis; also recorded: P. aeruginosa
1T-23 (PALVDLSNKEAVWAVLDDHS; Peptide with targeting and/or antimicrobial activity) | S. mutans; also recorded: P. aeruginosa
1T-24 (EEAEEKLAEVSQAVKRLVR; Peptide with targeting and/or antimicrobial activity) | P. aeruginosa

Substance | Target(s) (microorganism bound by the targeting peptide)
1T-25 (VGLDVSVLVLFFGLQLLSVLLGAMIR; Peptide with targeting and/or antimicrobial activity) | S. aureus; also recorded: S. epidermidis; also recorded: C. xerosis; also recorded: C. striatum; also recorded: P. aeruginosa
1T-26 (LTILPTTFFAIIVPILAVAFIAYSGFKIKGIVEHKDQW; Peptide with targeting and/or antimicrobial activity) | S. mutans; also recorded: S. aureus; also recorded: S. epidermidis; also recorded: C. jeikeium; also recorded: C. xerosis; also recorded: C. striatum; also recorded: P. aeruginosa
1T-27 (ALFVSLEQFLVVVAKSVFALCHSGTLS; Peptide with targeting and/or antimicrobial activity) | S. mutans; also recorded: S. aureus; also recorded: S. epidermidis; also recorded: C. jeikeium; also recorded: C. xerosis; also recorded: C. striatum; also recorded: P. aeruginosa
1T-28 (VSRDEAMEFIDREWTTLQPAGKSHA; Peptide with targeting and/or antimicrobial activity) | P. aeruginosa
1T-29 (GSVIKKRRKRMSKKKHRKMLRRTRVQRRKLGK; Peptide with targeting and/or antimicrobial activity) | S. epidermidis; also recorded: C. jeikeium; also recorded: C. xerosis; also recorded: C. striatum; also recorded: P. aeruginosa; also recorded: S. mutans; also recorded: S. aureus
1T-30 (GKAKPYQVRQVLRAVDKLETRRKKGGR; Peptide with targeting and/or antimicrobial activity) | S. aureus; also recorded: S. epidermidis; also recorded: C. xerosis; also recorded: C. striatum; also recorded: P. aeruginosa
1T-31 (NATGTDIGEVTLTLGRFS; Peptide with targeting and/or antimicrobial activity) | S. mutans; also recorded: P. aeruginosa
1T-32 (VSFLAGWLCLGLAAWRLGNA; Peptide with targeting and/or antimicrobial activity) | S. mutans
1T-33 (VRTLTILVIFIFNYLKSISYKLKQPFENNLAQSMISI; Peptide with targeting and/or antimicrobial activity) | S. aureus; also recorded: S. epidermidis; also recorded: C. jeikeium; also recorded: C. xerosis; also recorded: C. striatum; also recorded: P. aeruginosa
1T-34 (AFWLNILLTLLGYIPGIVHAVYIIAKR; Peptide with targeting and/or antimicrobial activity) | S. aureus; also recorded: S. epidermidis; also recorded: C. jeikeium; also recorded: C. xerosis; also recorded: C. striatum; also recorded: P. aeruginosa
1T-35 (EICLTLVFPIRGSYSEAAKFPVPIHIVEDGTVELPK; Peptide with targeting and/or antimicrobial activity) | P. aeruginosa
1T-36 (VYRHLRFIDGKLVEIRLERK; Peptide with targeting and/or antimicrobial activity) | S. aureus; also recorded: S. epidermidis; also recorded: C. jeikeium; also recorded: C. xerosis; also recorded: C. striatum; also recorded: P. aeruginosa
1T-37 (YIVGALVILAVAGLIYSMLRKA; Peptide with targeting and/or antimicrobial activity) | S. mutans; also recorded: S. aereus; also recorded: S. epidermidis; also recorded: C. jeikeium; also recorded: C. xerosis; also recorded: C. striatum; also recorded: P. aeruginosa
1T-38 (VMFVLTRGRSPRPMIPAY; Peptide with targeting and/or antimicrobial activity) | S. mutans; also recorded: S. aereus; also recorded: S. epidermidis; also recorded: C. jeikeium; also recorded: C. xerosis; also recorded: C. striatum; also recorded: P. aeruginosa
1T-39 (FGFCVWMYQLLAGPPGPPA; Peptide with targeting and/or antimicrobial activity) | S. mutans; also recorded: P. aeruginosa
1T-40 (QRVSLWSEVEHEFR; Peptide with targeting and/or antimicrobial activity) | S. mutans; also recorded: P. aeruginosa
1T-41 (KRGSKIVIAIAVVLIVLAGVWVW; Peptide with targeting and/or antimicrobial activity) | S. mutans; also recorded: S. aureus; also recorded: S. epidermidis; also recorded: C. jeikeium; also recorded: C. striatum; also recorded: P. aeruginosa
1T-42 (TVLDWLSLALATGLFVYLLVALLRADRA; Peptide with targeting and/or antimicrobial activity) | S. aureus; also recorded: S. epidermidis; also recorded: C. xerosis; also recorded: C. striatum; also recorded: P. aeruginosa
1T-43 (DRCLSVLSWSPPKVSPLI; Peptide with targeting and/or antimicrobial activity) | C. jeikium; also recorded: P. aeruginosa
1T-44 (DPALADFAAGMRAQVRT; Peptide with targeting and/or antimicrobial activity) | S. mutans; also recorded: S. aureus; also recorded: S. epidermidis; also recorded: C. jeikeium; also recorded: C. striatum; also recorded: P. aeruginosa
